The values below come from ChEMBL document CHEMBL5325471, “Identification of new modulator of DNA repairing pathways based on natural product (±)-peharmaline A” (Bioorg Med Chem, 2023).

Data set [1] has as its system HCT-116. Put plainly: Induction of DNA damage in human HCT-116 cell assessed as increase in olive tail moment at 4 uM incubated for 24 hrs by EtBr-based alkaline Comet assay (Rvb= 0.26%). It counts as functional.
Data set [2] has as its system HCT-116. Put plainly: Antiproliferative activity against human HCT-116 cells assessed as cell growth inhibition incubated for 44 hrs by MTT assay. The class given is functional, cell-based. To be noted: HCT-116, 44 h. (Tetrazolium dyes change colour on reduction, which living cells bring about.)
The nature of data set [3]: Drug exposure in BALB/c mouse plasma at 20 mg/kg, ip measured upto 24 hrs by LC-MS/MS analysis. The class given is ADME, organism-based. More on the design: dose 20 mg/kg, time < 24 hrs, route ip.
The next data set deals with A549. Put plainly: Antiproliferative activity against human A549 cells assessed as cell growth inhibition incubated for 44 hrs by MTT assay. It counts as functional, cell-based. The conditions noted are these: A549, 44 h.
Data set [4] is described as follows: Clearance in BALB/c mouse at 20 mg/kg, ip measured upto 24 hrs by LC-MS/MS analysis. The class given is ADME, organism-based. To be noted: in vivo.
The test system of data set [5] is HCT-116. The data set can be described thus: Induction of cell cycle arrest in human HCT-116 cells assessed as accumulation of cells at G1 phase at 1 uM incubated for 24 hrs by RNase/PI staining-based FACS flow cytometry analysis (reference value: 51 %). The class given is functional.
The test system of data set [6] is HCT-116. Put plainly: Induction of cell cycle arrest in human HCT-116 cells assessed as accumulation of cells at G1 phase at 2 uM incubated for 24 hrs by RNase/PI staining-based FACS flow cytometry analysis (reference value: 51 %). It counts as functional. Background: A flow cytometer gives signals particle by particle.
The test system of data set [7] is HCT-116. Put plainly: Induction of DNA damage in human HCT-116 cell assessed as comet tail formation at 0.5 uM incubated for 24 hrs by EtBr-based alkaline Comet assay (Rvb= 2.99 %). It counts as functional.
Data set [8] deals with HCT-116. The data set can be described thus: Induction of cell cycle arrest in human HCT-116 cells assessed as accumulation of cells at G2 phase at 1 uM incubated for 24 hrs by RNase/PI staining-based FACS flow cytometry analysis (reference value: 33 %). It counts as functional.
Data set [9] deals with HCT-116. Put plainly: Induction of cell cycle arrest in human HCT-116 cells assessed as accumulation of cells at G2 phase at 2 uM incubated for 24 hrs by RNase/PI staining-based FACS flow cytometry analysis (reference value: 33 %). It counts as functional.
Data set [10] can be described thus: Tmax in BALB/c mouse at 20 mg/kg, ip measured upto 24 hrs by LC-MS/MS analysis. It counts as ADME, organism-based. The conditions noted are these: in vivo.
Data set [11] deals with HCT-116. The data set can be described thus: Induction of DNA damage in human HCT-116 cell assessed as increase in olive tail moment at 2 uM incubated for 24 hrs by EtBr-based alkaline Comet assay (Rvb= 0.26%). It counts as functional.

With `COC(=O)[C@]1([C@H]2CCn3c2nc2ccccc2c3=O)NCCc2c1[nH]c1ccccc21` (racemic), the Activity in the data set with HCT-116 [1] stood at 24.72%; in the data set with HCT-116 [5] it was 71%; in the data set with HCT-116 [6], 74%; in the data set with HCT-116 [7], 31.99%; in the data set on HCT-116 [8], 17%; in the data set with HCT-116 [9], 21%. Besides, the Activity in the data set on HCT-116 [11] is on record as 14.05%. The IC50 was determined as 1020 nM with HCT-116 [2] and 1680 nM in the data set on A549. Moreover, in data set [3], the area under the curve (AUC) at 24 h is > 25 µM·h. Also, the CL/F in [4] is 30 mL/min/kg. For the same compound, the time of peak concentration (Tmax) in [10] came to 48 min.

The IC50 is the concentration at which inhibition is half-maximal. The AUC is concentration integrated over time. By CL/F is commonly meant the apparent clearance, not corrected for the fraction that reaches the circulation. What is called Tmax is the time at which the peak concentration occurs.
